Source: patent US12012374B2, “Agonists of ROR GAMMAt” (BRISTOL-MYERS SQUIBB COMPANY, priority 2019, dated 2024)

Target: T1, human RORgT (Homo sapiens, UniProt P51449)
T1 construct: expressed in transfected cells; host or cells: engineered Jurkat cells (Jurkat pEx/Gal/hRORγ CLBD/HYG pG5luc/blast)
T1 sequence (P51449 267-516): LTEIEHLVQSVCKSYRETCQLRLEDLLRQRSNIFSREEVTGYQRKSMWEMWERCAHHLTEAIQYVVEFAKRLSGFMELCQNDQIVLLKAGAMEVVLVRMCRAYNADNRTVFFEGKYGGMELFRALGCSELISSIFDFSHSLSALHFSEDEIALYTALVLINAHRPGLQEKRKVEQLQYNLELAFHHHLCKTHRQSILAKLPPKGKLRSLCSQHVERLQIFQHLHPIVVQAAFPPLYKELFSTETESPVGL
Experiment: RORgT Gal4 Luciferase Reporter Gene Assay
Format: cell-based
Conditions: engineered Jurkat cells overexpressing RORgT (LBD or full length) fused with Gal4 Luc reporter; 18 hours incubation

Going from O=C(C1CCS(=O)(=O)CC1)N1CC[C@](c2ccc(OCc3c(Cl)cccc3Cl)cc2)(S(=O)(=O)c2ccc(F)cc2)C1 [Example 36, 4-[(3R)-3-{4-[(2,6-dichlorophenyl)methoxy]phenyl}-3-(4-fluorobenzenesulfonyl)pyrrolidine-1-carbonyl]-1λ^6-thiane-1,1-dione] to O=C(C1CCS(=O)(=O)CC1)N1CC[C@](c2ccc(OCc3c(Cl)cccc3Cl)cc2)(S(=O)(=O)c2ccccc2)C1 [Example 33, 4-[(3R)-3-(benzenesulfonyl)-3-{4-[(2,6-dichlorophenyl)methoxy]phenyl}pyrrolidine-1-carbonyl]-1λ^6-thiane-1,1-dione], the EC50 rises from 17 nM to 32 nM (1.9-fold).

O=C(O)[C@H]1CC[C@H](C(=O)N2CC[C@](c3ccc(OCc4c(Cl)cccc4Cl)cc3)(S(=O)(=O)c3ccccc3)C2)CC1 [Example 34, (1r,4r)-4-[(3R)-3-(benzenesulfonyl)-3-{4-[(2,6-dichlorophenyl)methoxy]phenyl}pyrrolidine-1-carbonyl]cyclohexane-1-carboxylic acid] and O=C(O)[C@H]1CC[C@H](C(=O)N2CC[C@](c3ccc(OCc4c(Cl)cccc4C(F)(F)F)cc3)(S(=O)(=O)c3ccc(F)cc3)C2)CC1 [Example 47, (1r,4r)-4-[(3R)-3-(4-{[2-chloro-6-(trifluoromethyl)phenyl]methoxy}phenyl)-3-(4-fluorobenzenesulfonyl)pyrrolidine-1-carbonyl]cyclohexane-1-carboxylic acid] are within 1.5-fold of each other in EC50: 275 nM for the first, 293 nM for the second.

First: O=S(=O)(c1cccc(C(F)(F)F)c1)C1(c2ccc(OCc3ccccc3)cc2)CCCC1 [Example 8, 1-(benzyloxy)-4-{1-[3-(trifluoromethyl)benzenesulfonyl]cyclopentyl}benzene]
Second: O=S(=O)(c1ccccc1)C1(c2ccc(OCc3ccc(F)cc3)cc2)CCCC1 [Example 12, 1-[1-(benzenesulfonyl)cyclopentyl]-4-[(4-fluorophenyl)methoxy]benzene]
The EC50 of the first is 4.4-fold higher: 382 nM for the first, 87 nM for the second.

First: O=S(=O)(c1ccc(F)cc1)C1(c2ccc(OCc3ccccc3F)cc2)CCCC1 [Example 7, 1-[1-(4-fluorobenzenesulfonyl)cyclopentyl]-4-[(2-fluorophenyl)methoxy]benzene]
Second: O=C(Cc1ccncc1)N1CCC(c2ccc(OCc3c(Cl)cccc3Cl)cc2)(S(=O)(=O)c2ccccc2)C1 (stereo not drawn) [Example 26, 1-[3-(benzenesulfonyl)-3-{4-[(2,6-dichlorophenyl)methoxy]phenyl}pyrrolidin-1-yl]-2-(pyridin-4-yl)ethan-1-one]
The EC50 of the first is 9.4-fold higher: 723 nM for the first, 77 nM for the second.

Compound O=C(C1CCS(=O)(=O)CC1)N1CCC(c2ccc(OCc3ccccc3)cc2)(S(=O)(=O)c2cccc(C(F)(F)F)c2)C1 (stereo not drawn) [Example 21, 4-{3-[4-(benzyloxy)phenyl]-3-[3-(trifluoromethyl)benzenesulfonyl]pyrrolidine-1-carbonyl}-1λ^6-thiane-1,1-dione] has an EC50 of 462 nM.
